In patent US20240116985A1, “STAPLED PEPTIDES AND METHODS THEREOF” (priority 2020, published 2024):
In brackets after ≈: the same amount, converted by molar mass. Like-named read-outs stand apart in the source and are kept apart here.

Assays:
[1] = target: T1, full-length beta-Catenin (Uniprot ID P35222) (Homo sapiens, UniProt P35222); test: Fluorescence polarization IC50 (beta-catenin / 5FAM-TCF4 10-53 competition); assay type: binding
T1 construct: 10 nM full-length beta-Catenin (Uniprot ID P35222)
T1 sequence (P35222 1-781): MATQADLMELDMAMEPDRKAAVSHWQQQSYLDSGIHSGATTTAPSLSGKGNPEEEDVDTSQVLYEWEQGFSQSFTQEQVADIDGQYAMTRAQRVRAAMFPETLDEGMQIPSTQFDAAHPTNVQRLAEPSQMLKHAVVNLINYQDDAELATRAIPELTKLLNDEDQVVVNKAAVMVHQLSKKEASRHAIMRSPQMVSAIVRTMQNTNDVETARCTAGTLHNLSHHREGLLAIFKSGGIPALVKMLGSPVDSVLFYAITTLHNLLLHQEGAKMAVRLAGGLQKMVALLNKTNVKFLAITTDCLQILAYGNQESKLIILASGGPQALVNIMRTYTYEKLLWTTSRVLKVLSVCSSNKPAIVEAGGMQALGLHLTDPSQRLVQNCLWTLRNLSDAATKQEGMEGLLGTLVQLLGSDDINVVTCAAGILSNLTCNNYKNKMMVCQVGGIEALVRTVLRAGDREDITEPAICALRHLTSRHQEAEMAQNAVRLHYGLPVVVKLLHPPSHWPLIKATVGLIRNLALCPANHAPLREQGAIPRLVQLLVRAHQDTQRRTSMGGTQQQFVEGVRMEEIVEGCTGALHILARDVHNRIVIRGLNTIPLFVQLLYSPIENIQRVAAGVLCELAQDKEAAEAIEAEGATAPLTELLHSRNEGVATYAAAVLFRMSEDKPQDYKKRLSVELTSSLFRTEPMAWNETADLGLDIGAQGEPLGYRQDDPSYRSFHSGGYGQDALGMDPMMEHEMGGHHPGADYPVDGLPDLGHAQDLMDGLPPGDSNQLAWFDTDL

[2] = CHI Log D procedure; assay type: physicochemical; conditions: for CHI Log D: pH 7.4
[3] = Solubility in PBS; assay type: physicochemical
Outline: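 The PBS solution was ultracentrifuged and the supernatant analyzed by HPLC. Its peak area was divided by that of a 50 μM peptide DMSO reference injection and multiplied by 50 uM to give solubility.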

[4] = fluorescence polarization, beta-catenin, read-out: FP EC50
[5] = fluorescence polarization, read-out: beta-Catenin FP IC50

IC50 [1, 4] [nM]	CHI Log D [2]	Solubility [3] [µM]	IC50 [1, 5] [nM]	chromatographic logD ([2]; pH 7.4, CHI Log D)	Solubility ([3]; Solubility (uM)) [µM]	IC50 ([1]; read-out: FP EC50) [nM]	logD ([2]; pH 7.4, CHI Log D)	SMILES
1320	2.296	48 (≈ 88.2 µg/mL)	–	–	–	–	–	CC(=O)N1CCC[C@]12CC=CCCCC1(CCCC=CCCCCCC[C@@](C)(C(=O)N[C@@H](Cc3ccccc3)C(=O)N[C@@H](Cc3csc4ccccc34)C(=O)N[C@@H](CCC(N)=O)C(N)=O)NC(=O)[C@H](C)NC(=O)[C@H](Cc3cccc(C(F)(F)F)c3)NC(=O)[C@H](C)NC(=O)[C@H](C)NC(=O)[C@H](CC(=O)O)NC(=O)[C@H](CC(=O)O)NC1=O)NC(=O)[C@H](C)NC(=O)[C@H](CC(=O)O)NC2=O (stereo partly drawn) [I-377, Ac-PL3-Asp-Ala-B5-Asp-Asp-Ala-Ala-3F3MeF-Ala-S8-Phe-BztA-Gln-NH2]
–	–	50 (≈ 90.7 µg/mL)	3150	1.71	–	–	–	CC(=O)N1CCC[C@]12CC=CCCCC1(CCCC=CCCCCCC[C@@](C)(C(=O)N[C@@H](Cc3ccncc3)C(=O)N[C@@H](Cc3csc4ccccc34)C(=O)N[C@@H](CCC(N)=O)C(N)=O)NC(=O)[C@H](C(C)C)NC(=O)[C@H](Cc3ccccc3)NC(=O)[C@H](C)NC(=O)[C@H](C)NC(=O)[C@H](CCC(=O)O)NC(=O)[C@H](CC(=O)O)NC1=O)NC(=O)[C@H](C)NC(=O)[C@H](CC(=O)O)NC2=O (stereo partly drawn) [I-385, Ac-PL3-Asp-Ala-B5-Asp-Glu-Ala-Ala-Phe-Val-S8-4pyrA-BztA-Gln-NH2]
–	–	–	136	2.08	39 (≈ 70.7 µg/mL)	–	–	COC[C@@H]1NC(=O)[C@H](Cc2ccccc2)NC(=O)[C@H](C)NC(=O)[C@H](C)NC(=O)[C@H](CCC(=O)O)NC(=O)[C@H](CC(=O)O)NC(=O)C2(CCCC=CCCCCCC[C@@](C)(C(=O)N[C@@H](Cc3ccccc3)C(=O)N[C@@H](Cc3csc4ccccc34)C(=O)N[C@@H](CCC(N)=O)C(N)=O)NC1=O)CCCC=CC[C@]1(CCCN1C(C)=O)C(=O)N[C@@H](CC(=O)O)C(=O)N[C@@H](C)C(=O)N2 (stereo partly drawn) [I-433, Ac-PL3-Asp-Ala-B5-Asp-Glu-Ala-Ala-Phe-S(OMe)-S8-Phe-BztA-Gln-NH2]
–	2.609	10 (≈ 19.1 µg/mL)	692	–	–	692	–	CC[C@H](C)[C@@H]1NC(=O)[C@H](CC(=O)O)NC(=O)[C@]2(CC=CCCCC3(CCCC=CCCCCCC[C@@](C)(C(=O)N[C@@H](Cc4ccccc4)C(=O)N[C@@H](Cc4csc5ccccc45)C(=O)N[C@@H](CCC(N)=O)C(N)=O)NC(=O)[C@H](CCC(N)=O)NC(=O)[C@H](Cc4ccccc4)NC(=O)[C@H](C)NC(=O)[C@H](C)NC(=O)[C@H](CCCNC(N)=O)NC(=O)[C@H](CC(=O)O)NC3=O)NC1=O)CCCN2C(C)=O (stereo partly drawn) [I-604, Ac-PL3-Asp-Ile-B5-Asp-Cit-Ala-Ala-Phe-Gln-S8-Phe-BztA-Gln-NH2]
–	1.99	44 (≈ 81.3 µg/mL)	45	–	–	45	–	CC(=O)N1CCC[C@]12CC=CCCCC1(CCCC=CCCCCCC[C@@](C)(C(=O)N[C@@H](Cc3ccccc3)C(=O)N[C@@H](Cc3csc4ccccc34)C(=O)N[C@@H](CCC(N)=O)C(N)=O)NC(=O)[C@H](CCC(N)=O)NC(=O)[C@H](Cc3cccs3)NC(=O)[C@H](C)NC(=O)[C@H](C)NC(=O)[C@H](CCC(=O)O)NC(=O)[C@H](CC(=O)O)NC1=O)NC(=O)[C@H](C)NC(=O)[C@H](CC(=O)O)NC2=O (stereo partly drawn) [I-487, Ac-PL3-Asp-Ala-B5-Asp-Glu-Ala-Ala-2Thi-Gln-S8-Phe-BztA-Gln-NH2]
–	2.128	50 (≈ 92.1 µg/mL)	2130	–	–	2130	–	CC(=O)N1CCC[C@]12CC=CCCCC1(CCCC=CCCCCCC[C@@](C)(C(=O)N[C@@H](CCc3ccccc3)C(=O)N[C@@H](Cc3csc4ccccc34)C(=O)N[C@@H](CCC(N)=O)C(N)=O)NC(=O)[C@H](CC(N)=O)NC(=O)[C@H](Cc3ccccc3)NC(=O)[C@H](C)NC(=O)[C@H](C)NC(=O)[C@H](CCC(=O)O)NC(=O)[C@H](CC(=O)O)NC1=O)NC(=O)[C@H](C)NC(=O)[C@H](CC(=O)O)NC2=O (stereo partly drawn) [I-443, Ac-PL3-Asp-Ala-B5-Asp-Glu-Ala-Ala-Phe-Asn-S8-hPhe-BztA-Gln-NH2]
–	2.698	43 (≈ 74.9 µg/mL)	131	–	–	131	–	CC[C@H](C)[C@@H]1NC(=O)[C@H](CC(=O)O)NC(=O)[C@]2(CC=CCCCC3(CCCC=CCCCCCC[C@@](C)(C(=O)N[C@@H](Cc4ccccc4)C(=O)N[C@@H](Cc4csc5ccccc45)C(N)=O)NC(=O)[C@H](CC(N)=O)NC(=O)[C@H](Cc4ccccc4)NC(=O)[C@H](C)NC(=O)[C@H](C)NC(=O)[C@H](CCC(=O)O)NC(=O)[C@H](CC(=O)O)NC3=O)NC1=O)CCCN2C(C)=O (stereo partly drawn) [I-714, Ac-PL3-Asp-Ile-B5-Asp-Glu-Ala-Ala-Phe-Asn-S8-Phe-BztA-NH2]
–	–	–	43	2.4	30 (≈ 56.9 µg/mL)	–	–	CC[C@H](C)[C@@H]1NC(=O)[C@H](CC(=O)O)NC(=O)[C@]2(CC=CCCCC3(CCCC=CCCCCCC[C@@](C)(C(=O)N[C@@H](Cc4ccccc4)C(=O)N[C@@H](Cc4csc5ccccc45)C(=O)N[C@@H](Cc4c[nH]cn4)C(N)=O)NC(=O)[C@H](CCC(N)=O)NC(=O)[C@H](Cc4cccs4)NC(=O)[C@H](C)NC(=O)[C@H](C)NC(=O)[C@H](CCC(=O)O)NC(=O)[C@H](CC(=O)O)NC3=O)NC1=O)CCCN2C(C)=O (stereo partly drawn) [I-488, Ac-PL3-Asp-Ile-B5-Asp-Glu-Ala-Ala-2Thi-Gln-S8-Phe-BztA-His-NH2]
–	–	10 (≈ 18 µg/mL)	1950	–	–	–	2.64	CC(=O)N1CCC[C@]12CC=CCCCC1(CCCC=CCCCCCC[C@@](C)(C(=O)N[C@@H](CC3CCCC3)C(=O)N[C@@H](Cc3csc4ccccc34)C(=O)N[C@@H](CCC(N)=O)C(N)=O)NC(=O)[C@H](C(C)C)NC(=O)[C@H](Cc3ccccc3)NC(=O)[C@H](C)NC(=O)[C@H](C)NC(=O)[C@H](CCC(=O)O)NC(=O)[C@H](CC(=O)O)NC1=O)NC(=O)[C@H](C)NC(=O)[C@H](CC(=O)O)NC2=O (stereo partly drawn) [I-393, Ac-PL3-Asp-Ala-B5-Asp-Glu-Ala-Ala-Phe-Val-S8-CypA-BztA-Gln-NH2]
–	1.959	33 (≈ 61 µg/mL)	109	–	–	109	–	CC(=O)N1CCC[C@]12CC=CCCCC1(CCCC=CCCCCCC[C@@](C)(C(=O)N[C@@H](Cc3ccsc3)C(=O)N[C@@H](Cc3csc4ccccc34)C(=O)N[C@@H](CCC(N)=O)C(N)=O)NC(=O)[C@H](CCC(N)=O)NC(=O)[C@H](Cc3ccccc3)NC(=O)[C@H](C)NC(=O)[C@H](C)NC(=O)[C@H](CCC(=O)O)NC(=O)[C@H](CC(=O)O)NC1=O)NC(=O)[C@H](C)NC(=O)[C@H](CC(=O)O)NC2=O (stereo partly drawn) [I-426, Ac-PL3-Asp-Ala-B5-Asp-Glu-Ala-Ala-Phe-Gln-S8-3Thi-BztA-Gln-NH2]
691	2.059	48 (≈ 90.7 µg/mL)	691	–	–	–	–	CC(=O)N1CCC[C@]12CC=CCCCC1(CCCC=CCCCCCC[C@@](C)(C(=O)N[C@@H](Cc3ccsc3)C(=O)N[C@@H](Cc3csc4ccccc34)C(=O)N[C@@H](CCC(N)=O)C(N)=O)NC(=O)[C@H](CC(N)=O)NC(=O)[C@H](Cc3ccccc3)NC(=O)[C@H](C)NC(=O)[C@H](C)NC(=O)[C@H](CC(=O)O)NC(=O)[C@H](CC(=O)O)NC1=O)NC(=O)[C@H](CC(C)(C)C)NC(=O)C[C@H](CC(=O)O)NC2=O (stereo partly drawn) [I-1163, Ac-PL3-RbGlu-Npg-B5-Asp-Asp-Ala-Ala-Phe-Asn-S8-3Thi-BztA-Gln-NH2]
–	2.738	43 (≈ 85.2 µg/mL)	246	–	–	246	–	CC[C@@H](C)[C@@H](NC(=O)[C@H](CCC(N)=O)NC(=O)[C@H](Cc1csc2ccccc12)NC(=O)[C@H](Cc1ccccc1)NC(=O)[C@]1(C)CCCCCCC=CCCCC2(CCCC=CC[C@]3(CCCN3C(C)=O)C(=O)N[C@@H](CC(=O)O)C(=O)N[C@@H](CC(C)C)C(=O)N2)C(=O)N[C@@H](CC(=O)O)C(=O)N[C@@H](CCC(=O)O)C(=O)N[C@@H](C)C(=O)N[C@@H](C)C(=O)N[C@@H](Cc2ccccc2)C(=O)N[C@@H](CC(N)=O)C(=O)N1)C(N)=O (stereo partly drawn) [I-735, Ac-PL3-Asp-Leu-B5-Asp-Glu-Ala-Ala-Phe-Asn-S8-Phe-BztA-Gln-dIle-NH2]
–	2.437	14 (≈ 26.3 µg/mL)	34	–	–	34	–	CC(=O)N1CCC[C@]12CC=CCCCC1(CCCC=CCCCCCC[C@@](C)(C(=O)N[C@@H](Cc3ccccc3)C(=O)N[C@@H](Cc3csc4ccccc34)C(=O)N[C@@H](Cc3c[nH]cn3)C(N)=O)NC(=O)[C@H](CCC(N)=O)NC(=O)[C@H](Cc3ccccc3)NC(=O)[C@H](C)NC(=O)[C@H](C)NC(=O)[C@H](CC(=O)O)NC(=O)[C@H](CC(=O)O)NC1=O)NC(=O)[C@H](CC(C)C)NC(=O)[C@H](CC(=O)O)NC2=O (stereo partly drawn) [I-561, Ac-PL3-Asp-Leu-B5-Asp-Asp-Ala-Ala-Phe-Gln-S8-Phe-BztA-His-NH2]
